# Data: patent publication US11510931B2, “Compositions and methods for treating ophthalmic conditions” (MEDICON PHARMACEUTICALS, INC., priority 2016, dated 2022)
# How the values were obtained:
# Staphylococcus aureus = assay: Disk diffusion antimicrobial susceptibility with PS-impregnated antibiotic disks; assay type: cell-based; conditions: 24 h, mean ± SD
# Description: Briefly, Staphylococcus aureus grown in culture was seeded evenly on Muller-Hinton II Agar plates (BD Diagnostic Systems) at the standard concentration of 2×10^8 colony-forming units per mL. Antibiotic antimicrobial susceptibility disks (Thermo Scientific Oxoid™) were impregnated with one of six concentrations of PS (0%, 1%, 2%, 3%, 6%, 9%); 10 μL of each was evenly dispensed on each disk. An additional control was disks with no PS and no vehicle. The growth of bacteria around each disk was monitored and the area of “no growth” around each disk was measured 24 h later.
# [1] = system: cornea of New Zealand white rabbits; assay: Corneal touch threshold (CTT), Cochet-Bonnet aesthesiometer; assay type: in vivo, rabbit; conditions: Lidocaine 1%
# Description: The analgesic effect of PS was determined by measuring the corneal touch threshold (CTT) using the Luneau Cochet-Bonnet Aeshesiometer (Western Ophthalmics, Lynwood, Wash.), an adjustable nylon monofilament with a defined diameter, which is applied in different lengths to the center of the cornea. This device is generally described in Lima L, Lange R R, Turner-Giannico A, Montiani-Ferreira F. Evaluation of standardized endodontic paper point tear test in New Zealand white rabbits and comparison between corneal sensitivity followed tear tests. Vet Ophthalmol. 2015; 18 Suppl 1:119-24.
# A stimulus produced by the filament that reaches the CTT induces a corneal reflex, consisting of prompt eyelid closure. The CTT is quantified as centimeter length of the filament necessary to cause the blink reflex.
# The CTT is determined before (baseline) and at various time points after the application of the test compound (PS). PS was formulated either in β-cyclodextrin (42 or 8 mg/ml) or in a nanocarrier (19 mg/ml). The test drug was formulated in a nanocarrier by the emulsion and evaporation method (Vauthier C, Bouchemal K. Methods for the Preparation and Manufacture of Polymeric Nanoparticles. Pharmaceutical Research; 2009; 26:1025-1058). The formulated stable drug suspension consisted of polylactic acid and polyethylene glycol (PLLA(10k)-PEG(2k)); sodium cholate; and PS. The vehicle control was either β-cyclodextrin or the nanocarrier without PS. Commercially available lidocaine 1% was used as a positive control.
# To each eye of adult New Zealand white rabbits was applied […] drops of PS or vehicle or lidocaine, with 5 minutes between each drop. The time of the last drop was taken as the 0 time.
# The analgesic effect of PS was further examined on the surface of the eye by determining the corneal touch threshold (CTT) using the Luneau Cochet-Bonnet Aesthesiometer (Western Ophthalmics, Lynwood, Wash.) an adjustable nylon monofilament with a defined diameter, which is applied in different lengths to the center of the cornea.
# PGE2 = PGE2 levels in tears and cornea of rabbits by ELISA; assay type: in vivo, rabbit; conditions: for PGE2 levels in the cornea: administered once topically, 1 h later, FIG. 9B; for PGE2 levels in the cornea, % of the vehicle value: day 6, PS 2.3%, diclofenac 0.1%
# Description: The effects of PS, ketorolac and dicofenac (the latter two ophthalmic NSAIDs known to induce corneal melt) on the tear levels of PGE2 in rabbits with concanavalin A-induced dry eye were compared. Three eye drops of PS 1.5% or of commercially available ketorolac 0.5% were given at 0 time, and 1 h later to rabbits with concanavalin A-induced DED. Tears were obtained at 2 h and the levels of PGE2 were determined by ELISA. PGE2 in tears of naïve rabbits (not exposed to concanavalin A nor treated) was also measured. The PGE2 levels (mean±SEM) were: Naïve, 110.4±12.6 ng/ml; PS-treated, 115.4±15.8 ng/ml; Ketorolac-treated, 77.7±8.7 ng/ml. The difference in PS vs. ketorolac was significant, p<0.02; as was the difference in ketorolac vs naïve, p<0.03. Regarding this parameter, PS differs radically form ketorolac, which induces corneal melt.
# Levels of PGE2 in the corneas of three groups of rabbits were determined by ELISA. Rabbits were treated with PS 1.6% or ketorolac 0.5% eye drops topically applied to their eyes or were not treated (naïve group). Results in pg/mg protein (mean±SEM). Naïve=787.3±96.3; PS=880.6±110.3; Ketrolorac=247.2±187.4 (p<0.01 vs PS).
# Rabbits with DED induced by concanavalin A as above were treated for 6 days with vehicle, or PS 2.3% or ketorolac 0.5% or diclofenac 0.1%. Compared to the vehicle group, on day 6 the PGE2 levels in the cornea were 106% of the vehicle value in the PS group (not a statistically significant difference), 1.3% in the ketorolac group (p<0.0001 vs. vehicle, and 2.3% in the diclofenac group (p<0.0001 vs. vehicle).
# It was determined that the levels of PGE2 in rabbit tears in three groups of rabbits, naïve and those with Con A-induced DED that were treated for 1 week either with PS or vehicle.
# In an acute experiment, administered once topically to the eyes of four groups of rabbits with Con A-induced DED was one of the following: vehicle, PS, ketorolac or diclofenac; the latter two are NSAIDs used for the treatment of ocular inflammation and pain. It was determined that the levels of PGE2 in the cornea of these rabbits obtained 1 h later as well as in the corneas of naïve rabbits.
# [2] = system: concanavalin A-induced dry eye in rabbits; assay: Concanavalin A (Con A)-induced dry eye disease (DED) model in rabbits: TBUT, Schirmer test, tear osmolarity, tear lactoferrin; assay type: in vivo, rabbit; conditions: after 1 week of treatment with NSAID; FIG. 5
# Description: To assess the efficacy of PS on DED an improved concanavalin A model was used. In the concanavalin A model, dry eye is induced by injecting the lacrimal glands of a mammal with concanavalin A, a selective T cell mitogen that induces a lymphocytic infiltrate in these glands. The concanavalin A model is generally described in (Barabino S. Animal models of dry eye. Arch Soc Esp Oftalmol. 2005; 80(12):693-4). Concanavalin A was injected to the lacrimal glands under ultrasound guidance, thus eliminating injections to the vicinity of the gland (as opposed to the gland itself). The head and the tail of the major lacrimal gland of the rabbit were injected separately. The dose of concanavalin A was optimized for DED signs.
# In the testing described below, four markers of DED are monitored: the tear break up time (TBUT), the Schirmer test, tear osmolarity, and tear lactoferrin levels. All assays were performed at the same clock time (±1 hr) to avoid assay variability on account of circadian variations.
# In an efficacy experiment using the concanavalin A model, one group of rabbits was treated with compound 5, also known as phosphosulindac and abbreviated as PS, 1.5% eye drops and one group with vehicle. […] It is thus clear that PS applied topically suppresses DED.
# Con A was injected under ultrasound guidance into all the lacrimal glands and the success of the injection was verified by a post-injection ultrasound image (see FIG. 1 and FIG. 2). […] This variation explains why the blind injections recommended in the original method are often unsuccessful. This was confirmed by mixing the Con A solution with methylene blue and tracking its course after injection. In about ⅓ of the cases, Con A ended up outside the gland.
# Four parameters of efficacy were evaluated instead of the usual one or two. They include (a) the tear break up time (TBUT), determined using 0.2% fluorescein over the eye and recording the time taken to develop black dots, lines or obvious disruption of the fluorescein film; (b) tear osmolarity, measured using TearLab Osmolarity Test and following the manufacturer's instructions (TearLab Corp., San Diego, Calif.); (3) Schirmer tear test (STT), determined using Schirmer strips (EagleVision, Denville, N.J.) inserted between the cornea and the palpebral conjunctiva at the mid-point of the lower lid and measuring the length of moistened strip at 5 min; and (4) tear lactoferrin levels measured by ELISA kit (MyBiosource, San Diego, Calif.) following the instructions of the manufacturer. All four have been used in clinical practice and correlate with the clinical activity of the disease. The STT is the least reliable and, as result, it is clinically used less than half as frequently as TBUT.
# The injections of Con A to the lacrimal glands were repeated weekly as needed. When longer than a 1-week periods of study are needed, repeat injections prolong dry eye for at least 3 weeks, making the originally acute model chronic.
# PS Suppresses Con A—Induced Dry Eye in Rabbits. The effect of PS on dry eye was determined in New Zealand White (NZW) rabbits, 2-3 kg (Charles River Labs, Waltham, Mass.). These rabbits were housed singly in rooms with strict temperature (70±5° F.) and humidity (45±5%) control and acclimated for at least 2 weeks prior to induction of dry eye by injection of Con A as above. NZW rabbits with Con A-induced dry eye (three sets of injections) were treated with PS formulated as nanoparticles and administered topically as eye drops 3×/day for 21 days, starting on the day of Con A injection. […] Similar results were obtained on days 5 and 14 (data not shown).
# Using this model, we compared the effect of PS to that of cyclosporine and lifitegrast. Rabbits were treated for 6 days with PS as above or cyclosporine 0.05% or lifitegrast 5% eye drops 3×/day. In addition to determining TUBT, osmolarity and STT, we measured the levels of IL-8 and IL-1β in the ILGs of the rabbits harvested at euthanasia. […]
# [3] = system: chorioallantoic membrane (CAM); assay: Chorioallantoic membrane (CAM) neovascularization assay; assay type: in vivo, chicken; conditions: VEGF alone; day 4; Mean ± SEM
# Description: Second, the effect of PS on new vessel formation (neovascularization) was evaluated using the chorioallantoic membrane (CAM) assay. In this assay, fertilized white chicken eggs (SPF Premium, Charles River Laboratory, North Franklin, Conn.) were incubated at 37° C. in 70% humidity for 3 days. The embryos were then incubated ex vivo in a sterile Petri dish for 7 days. Gelatin sponges adsorbed with or without VEGF plus PS or water (vehicle control) were implanted on the CAM surface and the neovasculature was counted on day 4 post implantation under a dissecting microscope.
# MMPs = assay: General MMP activity in rabbit cornea (FRET peptide); assay type: in vivo
# Description: The general activity of MMPs was determined in the corneas of three groups of rabbits. This MMP activity assay employs a fluorescence resonance energy transfer (FRET) peptide as a generic MMP indicator. Rabbits were treated with PS 1.6% or ketorolac 0.5% eye drops topically applied to their eyes or were not treated (naïve group). Results in relative fluorescence units (RFU)/mg protein (mean±SEM). Naïve=1,328±123; PS=749±218; Ketoroloac=1,272±106 (p<0.03 vs PS).
# In an acute experiment, naïve rabbits were treated with either PS or ketorolac (both administered topically) for 1 h and determined the activity of MMP in the cornea. This assay determines the activity of MMPs collectively in a given tissue.
# [4] = antibiotic disk with PS 0% (vehicle only)
# [5] = Con A DED rabbits, ketorolac 0.5%
# [6] = rabbits, PS 1.6% or ketorolac 0.5% eye drops, mean±SEM
Molecule,Inhibition Zone (Staphylococcus aureus; [4]) [mm],Inhibition Zone (Staphylococcus aureus; antibiotic disk with PS 1%) [mm],Inhibition Zone (Staphylococcus aureus; antibiotic disk with PS 2%) [mm],Inhibition Zone (Staphylococcus aureus; antibiotic disk with PS 3%) [mm],Inhibition Zone (Staphylococcus aureus; antibiotic disk with PS 6%) [mm],Inhibition Zone (Staphylococcus aureus; antibiotic disk with PS 9%) [mm],PGE2 levels in the cornea (PGE2; Con A DED rabbits),"PGE2 levels in the cornea, % of the vehicle value (PGE2; [5]) [%]","TBUT, osmolarity and STT [2]",other results
O=C(O)c1cn(C2CC2)c2cc(N3CCNCC3)c(F)cc2c1=O [Ciprofloxacin],30.0 ± 0.0,30.3 ± 0.6,29.7 ± 0.6,29.3 ± 0.6,27.7 ± 0.4,29.7 ± 0.6,–,–,–,–
"CCN(CC)CC(=O)Nc1c(C)cccc1C [Lidocaine, lidocaine, reference compound]",–,–,–,–,–,–,–,–,–,Corneal touch threshold (CTT) ([1]; 1 min): 1.5 ± 1.3 centimeter; Corneal touch threshold (CTT) ([1]; 5 min): 2.3 ± 1.5 centimeter; Corneal touch threshold (CTT) ([1]; 10 min): 3.1 ± 1.9 centimeter; Corneal touch threshold (CTT) ([1]; 20 min): 4.0 ± 1.3 centimeter; Corneal touch threshold (CTT) ([1]; 30 min): 5.8 ± 0.6 centimeter; Corneal touch threshold (CTT) ([1]; 45 min): 5.8 ± 0.6 centimeter; Corneal touch threshold (CTT) ([1]; 60 min): 6.0 ± 0.0 centimeter; Corneal touch threshold (CTT) ([1]; baseline): 6.0 ± 0.0 centimeter
O=C(O)Cc1ccccc1Nc1c(Cl)cccc1Cl [diclofenac],–,–,–,–,–,–,suppressed nearly completely,2.3,failed to improve,–
C[C@H]1COc2c(N3CCN(C)CC3)c(F)cc3c(=O)c(C(=O)O)cn1c23 [Levofloxacin],32.3 ± 0.6,32.7 ± 0.6,32.0 ± 0.0,31.7 ± 0.6,32.3 ± 1.5,31.0 ± 1.0,–,–,–,–
VEGF [reference compound],–,–,–,–,–,–,–,–,–,# of new vessels [3]: 62.3 ± 1.8
"O=C(c1ccccc1)c1ccc2n1CCC2C(=O)O (stereo not shown) [Ketorolac, ketorolac]",–,–,–,–,–,–,suppressed nearly completely,1.3,failed to improve,"PGE2 levels in tears (PGE2; Con A DED rabbits, three eye drops at 0 and 1 h, tears at 2 h, PS 1.5%, ketorolac 0.5%, mean±SEM): 77.7 ± 8.7 ng/mL; PGE2 levels in the corneas (PGE2; [6]): 247.2±187.4 pg/mg protein; MMP activity in the cornea (MMPs; naïve rabbits, topical, 1 h): failed to affect; general activity of MMPs in the corneas (MMPs; [6]): 1,272±106 RFU/mg protein"
